Reference: paper PMC11207040, “Synthesis and Biological Studies of New Temporin A Analogs Containing Unnatural Amino Acids in Position 7” (Pharmaceutics, 2024)
Like-named read-outs stand apart in the source and are kept apart here. Non-standard residues stand in square brackets, D forms with d. Residues, ends and D or L forms follow the SMILES beside them. Dab = NCC[C@H](N)C(=O)O

What was measured:
[1] = system: MCF-7 cells; assay: MTT antiproliferative assay, MCF-7; type: cell-based, human; details: for IC50: MTT, 72 h, read-out: Mean IC50 ± SD, MCF-7; for SI (Selectivity Index), MCF-7: SI = IC50 MCF-12F/IC50 tumor cells;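 on SI (Selectivity Index), MCF-7: numerator is the IC50 in non-tumorigenic MCF-12F cells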
Protocol: (§1) The cell lines BALB 3T3 (mouse embryonic fibroblasts) and MCF-12F (human breast epithelial cells) were used as models for healthy tissue. The MCF-7 and MDA-MB-231 cell lines were used as in vitro models for luminal A- and basal B-type breast cancer, respectively. Cell lines were obtained from the American Type Cultures Collection (ATCC, Manassas, VA, USA). Cells were cultured in Dulbecco modified Eagle’s medium (DMEM) supplemented with 10% fetal bovine serum (FBS), 100 U/mL penicillin, and 0.1 mg/mL streptomycin (Sigma-Aldrich, Schnelldorf, Germany) in an incubator at 37 °C, 5% CO2 and 95% humidity. Plastic flasks 75 cm^2 (Biologix, Lenexa, KS, USA) were used to grow the cells.
The antiproliferative activity testing was performed on cell cultures using the MTT-dye reduction assay. This assay is based on the metabolism of MTT to insoluble formazan by mitochondrial reductases. The formazan concentration can be determined spectrophotometrically. The measured absorption is an indicator of cell viability. Cell lines (MCF-12F, MCF-7 and MDA-MB-231) were used in the experiments. Cells were plated at a density of 1 × 10^3 cells/100 µL in each well of 96-well microplates and allowed to adhere for 24 h before treatment with test compounds. A concentration range from 4 to 1000 μM was applied for 72 h. The formazan absorption was registered using a microplate reader at λ = 540 nm. Antiproliferative activities were expressed as IC50 values (concentrations required for 50% inhibition of cell growth).

[2] = system: BALB 3T3 clone A31 cells; assay: 3T3 NRU cytotoxicity/phototoxicity test; type: cell-based, mouse; details: PIF = CC50 −Irr/CC50 +Irr; PIF < 2 = not phototoxic
Protocol: as §1
(§2) The cytotoxicity/phototoxicity testing was performed as described by the OECD Guidelines for the Testing of Chemicals, Section 4, Test No. 432: In Vitro 3T3 NRU Phototoxicity Test. BALB 3T3, clone A31 cells were grown in 75 cm^2 tissue culture flasks in DMEM high-glucose (4.5 g/L), 10% FBS, and antibiotics at 37.5 °C, in a humidified atmosphere under 5% CO2. Cells were plated at 1 × 10^4 cells / 100 μL culture medium in each well of 96-well microplates and allowed to adhere for 24 h before treatment with test compounds. Peptides were dissolved in DMSO and diluted with culture medium to working concentrations from 4 to 1000 μM. In phototoxicity tests, 96-well plates were irradiated (+Irr) with a dose of 2.4 J/cm^2 using an artificial solar light simulator Helios-iO (SERIC Ltd., Tokyo, Japan), and the cells were incubated for an additional 24 h. After treatment with a Neutral Red medium, washing, and application of the NR Desorb solution, the absorption was measured on a microplate reader at a wavelength of 540 nm. Cytotoxicity/phototoxicity was expressed as CC50 values (concentrations required for 50% cytotoxicity).

[3] = 3T3 NRU cytotoxicity/phototoxicity test; type: cell-based, mouse; details: mouse; for CC50: cytotoxicity, no irradiation, BALB 3T3 clone A31, Neutral Red uptake, read-out: Mean CC50 ± SD, −Irr; for CC50 at 24 h: phototoxicity, irradiated 2.4 J/cm^2, BALB 3T3 clone A31, Neutral Red uptake, read-out: Mean CC50 ± SD, +Irr
Protocol: as §1, §2

[4] = system: Bacillus subtilis NBIMCC 3562; type: cell-based; details: for Inhibition effect, B. subtilis 3562: zone of peptide over zone of antibiotic x 100; for Inhibition zone, B. subtilis 3562: 20 µL per disc, 24 h
Protocol: (§3) The parent peptide Temporin A and the novel analogs were subjected to tests against model strains Escherichia coli NBIMCC 8785, Bacillus subtilis NBIMCC 3562, Arthrobacter oxydans NBIMCC 9333, Pseudomonas aeruginosa NBIMCC 3700, and Candida albicans NBIMCC 74, for the assessment of their antimicrobial activity. The strains were acquired from the National Bank for Industrial Microorganisms and Cell Cultures (NBIMCC, Bulgaria). The strain E. coli 8785 was cultured in Luria-Bertani broth (LB, HiMedia, Mumbai, India); B. subtilis 3562—in nutrient broth (NB, HiMedia, Mumbai, India); A. oxydans 9333; P. aeruginosa 3700—in meat peptone agar (MPA) medium; and C. albicans 74—in yeast mold (YM) medium. An incubator shaker ES-20/60 (Biosan, Latvia) was used for the cultivation and was set to 30 °C for B. subtilis 3562, A. oxydans 9333, and C. albicans 74; and 37 °C for E. coli 8785 and P. aeruginosa 3700, with a 24 h shaking period at 120 rpm. The microbial cultures were then adjusted to a turbidity of 0.5 McFarland using a Grant-bio DEN-1B densitometer (Grant Instruments, Royston, UK) for further use.
(§4) The disk-diffusion method was used as an additional method, with the aim of determining the percent inhibition of the tested samples against the model strains. Sterile plates with LB/NB/MPA/YM agar medium were inoculated on the surface with 100 μL from each microbial culture and incubated at 30 or 37 °C for 30 min, for the suspension to penetrate the agar. After that, sterile paper discs (HiMedia, Mumbai, India) with a diameter of 6 mm were soaked with 20 µL of the peptide solutions with concentrations of 1.4 mg/mL and 10 mg/mL and placed on the agar surface. Sterile paper discs with 10% EtOH/H2O were used as a negative control, and the corresponding strain antibiotic disks (HiMedia, Mumbai, India)—as a positive control. The incubation of the plate was performed at 30/37 °C for 24 h. The antimicrobial activity was analyzed by measuring the diameter of the inhibition zones in mm. The experiments were conducted in triplicates, and the average values for the percent of inhibition as a correlation between the inhibition zone of the peptides over the inhibition zone of the antibiotic multiplied by 100 were calculated.

[5] = system: Escherichia coli NBIMCC 8785; type: cell-based; details: 20 µL per disc, 24 h
Protocol: as §3, §4

[6] = system: Arthrobacter oxydans NBIMCC 9333; type: cell-based; details: for Inhibition effect, A. oxydans 9333: zone of peptide over zone of antibiotic x 100; for Inhibition zone, A. oxydans 9333: 20 µL per disc, 24 h
Protocol: as §3, §4

[7] = system: Pseudomonas aeruginosa NBIMCC 3700; type: cell-based; details: for Inhibition effect, P. aeruginosa 3700: zone of peptide over zone of antibiotic x 100; for Inhibition zone, P. aeruginosa 3700: 20 µL per disc, 24 h
Protocol: as §3, §4

[8] = system: Candida albicans NBIMCC 74; type: cell-based; details: 20 µL per disc, 24 h
Protocol: as §3, §4

Row | SMILES | IC50 [1] | SI (Selectivity Index), MCF-7 [1] | PIF (photo irritation factor) [2] | CC50 [3] | CC50 at 24 h [3] | Inhibition effect, B. subtilis 3562 ([4]; 1.4 mg/mL) | Inhibition effect, B. subtilis 3562 ([4]; 10 mg/mL) | Inhibition zone, B. subtilis 3562 ([4]; peptide 1.4 mg/mL) | Inhibition zone, B. subtilis 3562 ([4]; peptide 10 mg/mL) | Inhibition zone, E. coli 8785 ([5]; peptide 1.4 mg/mL) | Inhibition zone, E. coli 8785 ([5]; peptide 10 mg/mL) | Inhibition effect, A. oxydans 9333 ([6]; 1.4 mg/mL) | Inhibition effect, A. oxydans 9333 ([6]; 10 mg/mL) | Inhibition zone, A. oxydans 9333 ([6]; peptide 1.4 mg/mL) | Inhibition zone, A. oxydans 9333 ([6]; peptide 10 mg/mL) | Inhibition effect, P. aeruginosa 3700 ([7]; 1.4 mg/mL) | Inhibition effect, P. aeruginosa 3700 ([7]; 10 mg/mL) | Inhibition zone, P. aeruginosa 3700 ([7]; peptide 1.4 mg/mL) | Inhibition zone, P. aeruginosa 3700 ([7]; peptide 10 mg/mL) | Inhibition zone, C. albicans 74 ([8]; peptide 1.4 mg/mL) | other results
1 | CC[C@H](C)[C@H](NC(=O)CNC(=O)[C@H](CO)NC(=O)[C@H](CC(C)C)NC(=O)[C@@H](NC(=O)[C@H](CCN)NC(=O)CNC(=O)[C@@H](NC(=O)[C@H](CC(C)C)NC(=O)[C@@H]1CCCN1C(=O)[C@H](CC(C)C)NC(=O)[C@@H](N)Cc1ccccc1)[C@@H](C)CC)C(C)C)C(=O)N[C@@H](CC(C)C)C(N)=O [DTDab, FLPLIG-Dab-VLSGIL-NH2] (H-FLPLIG[Dab]VLSGIL-NH2; N-terminus assumed) | 157 ± 4.97 µM | 1.78 | 1.01 | 210 ± 6.69 µM | 207 ± 7.41 µM | 0.0% | 45.2% | 0.0 mm | 11.3 ± 0.6 mm | 0.0 mm | 0.0 mm | 43.2% | 76.3% | 8.2 ± 0.3 mm | 14.5 ± 0.5 mm | 48.1% | 89.4% | 7.7 ± 0.6 mm | 14.3 ± 0.6 mm | 0.0 mm | Inhibition zone, C. albicans 74 ([8]; peptide 10 mg/mL): 0.0 mm
2 | CC[C@H](C)[C@H](NC(=O)CNC(=O)[C@H](CO)NC(=O)[C@H](CC(C)C)NC(=O)[C@@H](NC(=O)[C@H](CCCCN)NC(=O)CNC(=O)[C@@H](NC(=O)[C@H](CC(C)C)NC(=O)[C@@H]1CCCN1C(=O)[C@H](CC(C)C)NC(=O)[C@@H](N)Cc1ccccc1)[C@@H](C)CC)C(C)C)C(=O)N[C@@H](CC(C)C)C(N)=O [DTF, FLPLIG-K-VLSGIL-NH2, reference compound] (H-FLPLIGKVLSGIL-NH2) | 49.8 ± 1.9 µM | 2.02 | 1.05 | 92.4 ± 2.82 µM | 88.4 ± 1.48 µM | 34.0% | 50.8% | 8.5 ± 0.5 mm | 12.7 ± 0.6 mm | 0.0 mm | 0.0 mm | 33.5% | 57.5% | 6.7 ± 0.3 mm | 11.5 ± 0.5 mm | 43.8% | 64.4% | 7.0 ± 0.5 mm | 10.3 ± 0.8 mm | 0.0 mm | Inhibition zone, C. albicans 74 ([8]; peptide 10 mg/mL): 0.0 mm
